Test results as given in patent US20240109914A1, “IMIDAZOTHIAZOLE COMPOUNDS AND ANALOGS THEREOF AND METHODS FOR TREATING NEMATODE INFECTIONS IN PLANTS” (The Governing Council of The University of Toronto, priority 2021, published 2024).
Read-outs that look alike come from different tables or passages of the source.

Legend:
M. hapla eggs = test: Meloidogyne hapla in vitro egg hatch assay; format: in vivo; details: 45 μM; for Number of Hatched Eggs: 8 days at room temperature, about 90 eggs per well, tested once; for Number of Hatched Eggs z-score: 8 days, z-score vs 8 untreated DMSO wells
Description: The M. hapla were originally obtained from a soil sample of muck soil from Ste-Clotilde, Quebec, Canada. Using tweezers, egg masses were carefully removed from root material from infested carrot roots. Eggs were liberated from the egg masses using a mild sodium hypochlorite bleaching protocol, whereby egg masses were bleached with a 10% commercial bleach (sodium hypochlorite) solution for 4 minutes with vigorous shaking, and then washed 5 times with deionized water. 50 μL of deionized water was added to each well of two 96-well polystyrene culture plates, and 0.5 μL of chemical (or DMSO alone) was added to each well. Approximately 90 eggs were added to each well in 49.5 ul of deionized water. The plates were sealed with parafilm and incubated for 8 days at room temperature without shaking in a Tupperware box filled with wet paper towels. After the 8-day incubation, the number of hatched eggs was counted for each treatment and for the untreated controls. Each chemical treatment was tested only once. 8 separate untreated DMSO controls were included in the experiment. The z-score for each treatment was calculated using the mean and standard deviation of the untreated DMSO control wells.

C. elegans = C. elegans dose-response (viability, minimum lethal concentration); format: in vivo, Caenorhabditis elegans; details: Caenorhabditis elegans, 72 h, L1 worms, 3 days at 20° C.
Description: Forty microliters of an HB101 E. coli bacterial suspension in liquid NGM (nematode growth media—see ref. 42 for the recipe) was added to each well of a 96-well flat-bottom culture plate, after which approximately 25 synchronized L1 worms, in 10 μl of M9 buffer (see ref. 43 for the recipe), were added to each well. The synchronized L1 worms were obtained from an embryo preparation performed the previous day (see ref. 43 for the protocol). For the L1 assays, 0.5 μl of test compound solution (or DMSO alone) was immediately added to the wells using a multichannel pipette; the final DMSO concentration is 1% (v/v). The worms were incubated for 3 days at 20° C. and the number of viable animals was counted.
At least three biological replicates were performed for each dose-response assay. For each biological replicate, two technical replicates were performed and the numbers of viable animals for each technical replicate were combined (i.e. ˜ 50 worms assayed per concentration). The number of viable worms at each concentration was divided by the corresponding DMSO control value to give the “relative viability” for each concentration. The “relative viability” values were then averaged across the biological replicates. Minimum lethal concentration was defined as the lowest concentration at which at least 20% of worms die.

M. incognita J2 larvae = test: Meloidogyne incognita in vitro larval mobility assay; format: in vivo; details: for Replicate 1 z-score / Replicate 2 z-score: z-score vs untreated DMSO wells; for pest or weed control at 45 µM: Meloidogyne incognita, 96 h
Description: M. incognita (Kofoid & White) Chitwood Race 1 (originally isolated in Maryland) was used for all experiments, and was maintained on pepper (Capsicum annuum L.) cv. PA-136 in a greenhouse as previously described^44. Infective J2 juveniles were collected as described in ref. 45. The microwell dose-response experiments were carried out similarly to previously described protocols^44,46. In brief, 50 μL of deionized water was added to the wells of 96-well polystyrene plates and 0.5 μL of test compound (or DMSO alone) was added to each well. Approximately 35 J2s were then added to each well in 49.5 μL of deionized water. The chemicals were tested at 45 μM, and the final concentration of DMSO in each well was 0.5% (v/v). DMSO alone was added to 3 separate wells. The plates were covered with plastic adhesive strips, and the lids of the plates were sealed with parafilm. The plates were incubated at 25° C. without shaking for 4 days. The percent of worms that were immobile (% immobile) was quantified by counting the number of immobile worms after 4 days of incubation, dividing the number of immobile worms by the total number of worms in the well, and then multiplying by 100. Two replicates were performed for each treatment. The z-score for each treatment was calculated using the mean and standard deviation of the untreated DMSO control wells. The average % immobile value was calculated across the two replicates. A test compound was considered most promising if the z-score was greater than 1.645 in both replicates.

tomato plants = test: Root mass of tomato plants in the soil infectivity assay; details: 45 μM in soil, 8 weeks
Description: For the infectivity assays, 90 grams of soil (1:1 sand:loam mix) was added to each cell of several 6-cell plastic garden packs. The soil was drenched with 18 mL of deionized water containing dissolved test compound or DMSO alone. 2,500 infective J2 juveniles were then added to the soil in 2 mL of deionized water, for a total water volume of 20 mL. […] The DMSO concentration varied from 0.1% to 0.8% (v/v) depending on the stock concentration of the test compound. The highest DMSO concentration was used as the DMSO control. The J2s were incubated in the soil and chemical for 24 hours, after which two- to three-week old tomato seedlings were transplanted into the soil (one plant per cell). Two replicates were performed for each chemical treatment, and four replicates were done for the DMSO controls. The whole experiment was replicated twice, in two different batches on two different days, for a total of four replicates for each test compound treatment, and eight replicates for the DMSO controls. Inoculated plants were grown for 8 weeks in a greenhouse, as described^47, under long-day conditions (16-h photoperiod) with 26/18° C. day/night temperatures. After 8 weeks, the plants were destructively harvested. The tops were removed and discarded, and roots were gently washed with water to remove adhering soil. Eggs were extracted by placing rinsed roots in 0.6% sodium hypochlorite and agitating at 300 rpm for 3 min. Roots were then rinsed over nested 250—and 25.4-μm sieves, with eggs collected from the latter and suspended in water. Roots were dried in a 65° C. oven for at least 24 hours, after which dry roots were weighed. The number of eggs from each plant root was counted on a dissection microscope using a haemocytometer, and the number of eggs per milligram of root was calculated by dividing the total egg number by the mass of the dried root material. An average was taken across the replicates performed on the same day, and then normalized to the DMSO control average. […] An average percent effectiveness value was then calculated across the two different batches carried out on different days.

M. incognita = test: Meloidogyne incognita infectivity assay (soil, tomato roots); format: in vivo; details: Meloidogyne incognita, 1344 h, 45 μM in soil, 8 weeks, eggs per mg root relative to DMSO control, read-out: % effectiveness at inhibiting reproduction of M. incognita
Source text: An M. incognita population originally collected from grape (Vitis vinifera) in Parlier, California, was used for all experiments, and they were maintained on tomato plants (Solanum lycopersicum ‘Rutgers’) as previously described^47. Infective J2 juveniles were collected as described in ref. 47.

[1] = lowest concentration at which at least 20% of worms die, read-out: Minimum Lethal Concentration
[2] = same values in ppm, read-out: Minimum Lethal Concentration (ppm)
[3] = 45 μM, 4 days, average of the two replicates, read-out: Average % Immobile
[4] = 45 μM, 4 days, replicate 1, read-out: Replicate 1 % Immobile
[5] = 45 μM, 4 days, replicate 2, read-out: Replicate 2 % Immobile

CCc1ccc(-c2cn3c(C)csc3n2)cc1 [I-9]
Number of Hatched Eggs (M. hapla eggs): 2
Number of Hatched Eggs z-score (M. hapla eggs): [3.97]
minimal effective concentration (C. elegans; [1]): 100 µM
minimal effective concentration (C. elegans; [2]): 24.2 µg/mL

Cc1ccc(-c2nc3sccn3c2C)cc1 [I-3]
Replicate 1 z-score (M. incognita J2 larvae; 45 μM, 4 days, replicate 1): [6.94]
Replicate 2 z-score (M. incognita J2 larvae; 45 μM, 4 days, replicate 2): [2.76]
pest or weed control at 45 µM (M. incognita J2 larvae; [3]): 40.8%
pest or weed control at 45 µM (M. incognita J2 larvae; [4]): 56.7%
pest or weed control at 45 µM (M. incognita J2 larvae; [5]): 25%
minimal effective concentration (C. elegans; [1]): > 100 µM
minimal effective concentration (C. elegans; [2]): > 22.8 µg/mL

Cc1c(-c2ccccc2Cl)nc2sccn12 [I-28]
Normalized root mass (relative to DMSO control) (tomato plants): 1.37
minimal effective concentration (C. elegans; [1]): > 100 µM
minimal effective concentration (C. elegans; [2]): > 24.9 µg/mL
pest or weed control at 45 µM (M. incognita): 17.4%

Cc1ccc(-c2cn3cc(C)sc3n2)cc1 [I-5]
minimal effective concentration (C. elegans; [1]): 25 µM
minimal effective concentration (C. elegans; [2]): 5.7 µg/mL

CCc1ccc(-c2nc3sccn3c2C)cc1 [I-8]
minimal effective concentration (C. elegans; [1]): 50 µM
minimal effective concentration (C. elegans; [2]): 12.1 µg/mL

Clc1ccc(-c2cn3ccsc3n2)c(Cl)c1 [I-32]
Normalized root mass (relative to DMSO control) (tomato plants): 1.31
minimal effective concentration (C. elegans; [1]): 6.25 µM
minimal effective concentration (C. elegans; [2]): 1.7 µg/mL
pest or weed control at 45 µM (M. incognita): 4.4%

Cc1c(-c2cccc(F)c2)nc2sccn12 [I-15]
Normalized root mass (relative to DMSO control) (tomato plants): 1.35
minimal effective concentration (C. elegans; [1]): > 100 µM
minimal effective concentration (C. elegans; [2]): > 23.2 µg/mL
pest or weed control at 45 µM (M. incognita): 5.8%

CC(C)(C)c1ccc(-c2cn3ccsc3n2)cc1 [I-12]
minimal effective concentration (C. elegans; [1]): 100 µM
minimal effective concentration (C. elegans; [2]): 25.6 µg/mL

Cc1csc2nc(-c3ccccc3F)cn12 [I-20]
minimal effective concentration (C. elegans; [1]): > 100 µM
minimal effective concentration (C. elegans; [2]): > 23.2 µg/mL

Cc1csc2nc(-c3ccccc3Br)cn12 [I-40]
minimal effective concentration (C. elegans; [1]): > 100 µM
minimal effective concentration (C. elegans; [2]): > 29.3 µg/mL

Ic1cccc(-c2cn3ccsc3n2)c1 [I-42]
Replicate 1 z-score (M. incognita J2 larvae; 45 μM, 4 days, replicate 1): [5.89]
Replicate 2 z-score (M. incognita J2 larvae; 45 μM, 4 days, replicate 2): [11.03]
pest or weed control at 45 µM (M. incognita J2 larvae; [3]): 61.1%
pest or weed control at 45 µM (M. incognita J2 larvae; [4]): 51.5%
pest or weed control at 45 µM (M. incognita J2 larvae; [5]): 70.7%
minimal effective concentration (C. elegans; [1]): 25 µM
minimal effective concentration (C. elegans; [2]): 8.2 µg/mL

Cc1csc2nc(-c3cccc(Br)c3)cn12 [I-36]
minimal effective concentration (C. elegans; [1]): > 100 µM
minimal effective concentration (C. elegans; [2]): > 29.3 µg/mL

Ic1ccccc1-c1cn2ccsc2n1 [I-43]
Number of Hatched Eggs (M. hapla eggs): 4
Number of Hatched Eggs z-score (M. hapla eggs): [3.31]
minimal effective concentration (C. elegans; [1]): 50 µM
minimal effective concentration (C. elegans; [2]): 16.3 µg/mL

Brc1cccc(-c2cn3ccsc3n2)c1 [I-34]
Number of Hatched Eggs (M. hapla eggs): 1
Number of Hatched Eggs z-score (M. hapla eggs): [4.30]
Replicate 1 z-score (M. incognita J2 larvae; 45 μM, 4 days, replicate 1): [15.00]
Replicate 2 z-score (M. incognita J2 larvae; 45 μM, 4 days, replicate 2): [14.11]
pest or weed control at 45 µM (M. incognita J2 larvae; [3]): ≥ 75%
pest or weed control at 45 µM (M. incognita J2 larvae; [4]): 96.1%
pest or weed control at 45 µM (M. incognita J2 larvae; [5]): 87.8%
minimal effective concentration (C. elegans; [1]): 50 µM
minimal effective concentration (C. elegans; [2]): 14 µg/mL

Cc1ccc(-c2cn3c(C)csc3n2)cc1 [I-4]
Number of Hatched Eggs (M. hapla eggs): 4
Number of Hatched Eggs z-score (M. hapla eggs): [3.31]
minimal effective concentration (C. elegans; [1]): 100 µM
minimal effective concentration (C. elegans; [2]): 22.8 µg/mL

Cc1cn2cc(-c3cccc(Br)c3)nc2s1 [I-37]
Normalized root mass (relative to DMSO control) (tomato plants): 1.31
minimal effective concentration (C. elegans; [1]): > 100 µM
minimal effective concentration (C. elegans; [2]): > 29.3 µg/mL
pest or weed control at 45 µM (M. incognita): 21.6%

Brc1ccccc1-c1cn2ccsc2n1 [I-38]
Normalized root mass (relative to DMSO control) (tomato plants): 1.21
minimal effective concentration (C. elegans; [1]): 100 µM
minimal effective concentration (C. elegans; [2]): 27.9 µg/mL
pest or weed control at 45 µM (M. incognita): 0%

Nc1ccc(-c2cn3ccsc3n2)cc1 [I-44]
minimal effective concentration (C. elegans; [1]): > 100 µM
minimal effective concentration (C. elegans; [2]): > 21.5 µg/mL

Clc1cccc(-c2cn3ccsc3n2)c1 [I-23]
Number of Hatched Eggs (M. hapla eggs): 1
Number of Hatched Eggs z-score (M. hapla eggs): [4.30]
Replicate 1 z-score (M. incognita J2 larvae; 45 μM, 4 days, replicate 1): [14.66]
Replicate 2 z-score (M. incognita J2 larvae; 45 μM, 4 days, replicate 2): [13.61]
pest or weed control at 45 µM (M. incognita J2 larvae; [3]): ≥ 75%
pest or weed control at 45 µM (M. incognita J2 larvae; [4]): 94.4%
pest or weed control at 45 µM (M. incognita J2 larvae; [5]): 85%
minimal effective concentration (C. elegans; [1]): 100 µM
minimal effective concentration (C. elegans; [2]): 23.5 µg/mL

Fc1ccccc1-c1cn2ccsc2n1 [I-18]
Normalized root mass (relative to DMSO control) (tomato plants): 1.13
pest or weed control at 45 µM (M. incognita): 0%

Cc1c(-c2ccccc2Br)nc2sccn12 [I-39]
minimal effective concentration (C. elegans; [1]): > 100 µM
minimal effective concentration (C. elegans; [2]): > 29.3 µg/mL

Cc1ccc(-c2cn3ccsc3n2)cc1 [I-2]
Replicate 1 z-score (M. incognita J2 larvae; 45 μM, 4 days, replicate 1): [14.54]
Replicate 2 z-score (M. incognita J2 larvae; 45 μM, 4 days, replicate 2): [6.03]
pest or weed control at 45 µM (M. incognita J2 larvae; [3]): 68.5%
pest or weed control at 45 µM (M. incognita J2 larvae; [4]): 93.8%
pest or weed control at 45 µM (M. incognita J2 larvae; [5]): 43.1%
minimal effective concentration (C. elegans; [1]): 50 µM
minimal effective concentration (C. elegans; [2]): 14.8 µg/mL

Cc1ccc(-c2cn3ccsc3n2)cc1C [I-6]
Replicate 1 z-score (M. incognita J2 larvae; 45 μM, 4 days, replicate 1): [4.25]
Replicate 2 z-score (M. incognita J2 larvae; 45 μM, 4 days, replicate 2): [3.22]
pest or weed control at 45 µM (M. incognita J2 larvae; [3]): 35.5%
pest or weed control at 45 µM (M. incognita J2 larvae; [4]): 43.5%
pest or weed control at 45 µM (M. incognita J2 larvae; [5]): 27.6%
minimal effective concentration (C. elegans; [1]): > 100 µM
minimal effective concentration (C. elegans; [2]): > 22.8 µg/mL

CNC(=O)O/N=C(\SC)C(=O)N(C)C [Oxamyl, oxamyl, reference compound]
Number of Hatched Eggs (M. hapla eggs): 9
Number of Hatched Eggs z-score (M. hapla eggs): [1.65]
Replicate 1 z-score (M. incognita J2 larvae; 45 μM, 4 days, replicate 1): [9.35]
Replicate 2 z-score (M. incognita J2 larvae; 45 μM, 4 days, replicate 2): [13.88]
pest or weed control at 45 µM (M. incognita J2 larvae; read-out: Average % Immobile): 66.9%
pest or weed control at 45 µM (M. incognita J2 larvae; read-out: Replicate 1 % Immobile): 67.2%
pest or weed control at 45 µM (M. incognita J2 larvae; read-out: Replicate 2 % Immobile): 66.7%

CCc1cccc(-c2cn3ccsc3n2)c1 [I-11]
Number of Hatched Eggs (M. hapla eggs): 3
Number of Hatched Eggs z-score (M. hapla eggs): [3.64]
minimal effective concentration (C. elegans; [1]): 100 µM
minimal effective concentration (C. elegans; [2]): 22.8 µg/mL
